Reference: the supplement of paper PMC11451515

What was measured:
P12-Ichikawa [1] = experiment: cell viability relative to DMSO control; higher = less cytotoxic; conditions: HPLM + 10% dialyzed FBS, 48 h
Method in brief: (§1)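 NOMO1 or SEM (500 cells/well) or P12-Ichikawa (1000 cells/well) leukemia cells were adapted for at least four passages in each medium. They were seeded in 1536-well plates (5 μl) and pin-dosed with library compounds in DMSO over an 11-point threefold series, 47 μM to 0.79 nM. CellTiter-Glo One luminescence was read after 48 h at 37°C. Viability is the per-plate percentage relative to DMSO wells, with cell-free wells as background.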

NOMO1 [2] = experiment: as above; conditions: 48 h
Method in brief: as §1

SEM cells [3] = experiment: as above; conditions: 48 h
Method in brief: as §1

P12-Ichikawa [4] = experiment: AUC of viability dose-response curve (% viability x log10 dose units); higher = less sensitive; conditions: 48 h
Method in brief: (§2)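 Library compounds in DMSO were applied for 48 h at 37°C at 11 threefold doses (47 μM to 0.79 nM) to medium-adapted leukemia cells in 1536-well plates holding 500 or 1000 cells/well. Luminescence from CellTiter-Glo One was normalised plate by plate against DMSO and cell-free wells. Area under the curve came from trapezoidal integration of a log-logistic fit, after scaling curves that rose above full viability and discarding those that failed quality control. The fit had four parameters and used log10 doses.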

NOMO1 [5] = experiment: as above; conditions: 48 h
Method in brief: as §2

SEM cells [6] = experiment: as above; conditions: 48 h
Method in brief: as §2

CC1=C(/C=C/C(C)=C/C=C/C(C)=C/C(=O)O)C(C)(C)CCC1
Conditions	AUC of viability dose-response curve	cell viability [%]
NOMO1 [5], HPLM + 10% dialyzed FBS	434	–
NOMO1 [5], RPMI 5 mM glucose + 10% FBS	443	–
NOMO1 [5], RPMI 5 mM glucose + 10% dialyzed FBS	412	–
P12-Ichikawa [1], 0.000781 µM	–	116
P12-Ichikawa [1], 0.00234 µM	–	125
P12-Ichikawa [1], 0.00702 µM	–	121
P12-Ichikawa [1], 0.0211 µM	–	121
P12-Ichikawa [1], 0.0632 µM	–	127
P12-Ichikawa [1], 0.19 µM	–	119
P12-Ichikawa [1], 0.569 µM	–	132
P12-Ichikawa [1], 1.71 µM	–	126
P12-Ichikawa [1], 5.12 µM	–	123
P12-Ichikawa [1], 15.4 µM	–	111
P12-Ichikawa [1], 46.1 µM	–	104
P12-Ichikawa [4], HPLM + 10% dialyzed FBS	468	–
P12-Ichikawa [4], RPMI 5 mM glucose + 10% FBS	464	–
P12-Ichikawa [4], RPMI 5 mM glucose + 10% dialyzed FBS	467	–
SEM cells [6], HPLM + 10% dialyzed FBS	475	–
SEM cells [6], RPMI 5 mM glucose + 10% FBS	465	–
SEM cells [6], RPMI 5 mM glucose + 10% dialyzed FBS	450	–

cell viability [%]
Conditions	HPLM + 10% dialyzed FBS	RPMI 5 mM glucose + 10% FBS	RPMI 5 mM glucose + 10% dialyzed FBS
NOMO1 [2], 0.000781 µM	106	128	–
NOMO1 [2], 0.00234 µM	106	124	–
NOMO1 [2], 0.00702 µM	144	114	–
NOMO1 [2], 0.0211 µM	126	111	–
NOMO1 [2], 0.0632 µM	114	118	–
NOMO1 [2], 0.19 µM	127	122	–
NOMO1 [2], 0.569 µM	110	128	–
NOMO1 [2], 1.71 µM	104	110	–
NOMO1 [2], 5.12 µM	98	94	–
NOMO1 [2], 15.4 µM	84.3	99.1	–
NOMO1 [2], 46.1 µM	80.3	68.4	–
SEM cells [3], 0.000781 µM	111	118	112
SEM cells [3], 0.00234 µM	114	116	107
SEM cells [3], 0.00702 µM	116	139	128
SEM cells [3], 0.0211 µM	129	123	99.8
SEM cells [3], 0.0632 µM	133	120	110
SEM cells [3], 0.19 µM	123	123	120
SEM cells [3], 0.569 µM	137	121	120
SEM cells [3], 1.71 µM	145	155	144
SEM cells [3], 5.12 µM	122	124	102
SEM cells [3], 15.4 µM	115	113	98.3
SEM cells [3], 46.1 µM	102	101	84.8
